Entries after “also recorded” stand apart in the source; their conditions may differ.

Here are results for 3 molecules from patent US9555032B2, “Methods for treatment and prevention of tauopathies and amyloid beta amyloidosis by modulating CRF receptor signaling” (Research Development Foundation, priority 2007, dated 2017).

The conditions of data set [1]: Gerhlert et al., 2007; cited from earlier work.
The conditions of data set [2]: Gerhlert et al., 2007; cited from earlier work. This is another data set of the same source.
Data set [3] has as its system tau phosphorylation (tau-P) at the AT8 and PHF-1 sites. Kind of data set: Acute restraint stress-induced tau phosphorylation, Western blot of hippocampal extracts, CRF-R1 antagonist pretreatment. It counts as in vivo, mouse. The method, then: Acute restraint stress involved placing mice in ventilated 50 ml conical tubes for 30 min; repeated stress involved 14 consecutive daily exposures. Animals were killed at various intervals ranging from 20 min to 24 hr after stress. Control mice were handled comparably, but were not otherwise manipulated.
The small molecule, CRF-R1-selective antagonist, antalarmin (Webster et al., 1996), was administered at 20 mg/kg by intraperitoneal (ip) injection 20 min before stress exposure. All animals were handled twice daily for 28 d prior to experimentation, and received daily mock ip injections to minimize stress of injection at testing. […]
After sedation, the animals were decapitated and the hippocampus was rapidly dissected and frozen on dry ice. […] Protein concentrations were determined using a BCA Protein Assay Kit (Pierce Biotechnology, Rockford, Ill.). […] Primary antibodies were detected with either anti-mouse or rabbit horseradish peroxidase-linked secondary antibodies (1:1000 Calbiochem, San Diego, Calif.) and developed with an enhanced chemiluminescence Western blot detection kit (Supersignal West Pico, Pierce Biotechnology). Background subtraction was performed and quantitative band intensity readings were obtained using NIH Image software. […]

The subject of data set [4] is PS/APP mouse AD model (amyloid plaques). Kind of data set: Amyloid plaque density in PS/APP transgenic mouse AD model with or without chronic variable stress. It counts as in vivo. The note with it: antalarmin 40 mg/kg/d ip; for density of plaques in cortex and hippocampus: sacrificed end of fifth month. The text has this: The PS/APP mouse line was originally purchased from another research laboratory. These mice express the Swedish familial AD mutation of human amyloid precursor protein (APP) (APPK670N,M671L; line Tg2576) and the familial AD mutation of presenilin-1 (PSEN1-dE9) (Jankowsky et al., 2001). Hemizygous double mutant PS/APP offspring and non-transgenic mice were used in experimentation, as it has been reported that homozygote lines of Tg2576 cannot be generated (McGowan et al., 1999). Genotypes were determined by PCR analysis of ear or tail DNA.
For acute stress experiments, CRFR1-selective small molecule antagonist, antalarmin (Webster et al., 1996), was administered at 20 mg/kg by intraperitoneal (ip) injection 20 min before stress exposure. All animals were handled twice daily for at least 14d prior to experimentation, and receive daily mock ip injections to minimize stress of injection at testing. Antalarmin was solubilized in equal volumes of absolute ethanol and Cremaphor EL (Sigma-Aldrich, St. Louis, Mo.), as described (Webster et al., 1996; Pernar et al., 2004). This stock solution was diluted in prewarmed (50° C.) distilled water and adjusted to a final concentration of 4 mg/ml immediately prior to injection. For chronic administration, antalarmin was administered twice daily via ip injection (Wong et al., 1999).
CVS involved daily exposure to either two brief or one sustained stressor over 15d. Brief stressors included elevated plus maze exposure (30 min), shaker stress (30 min on an orbital shaker at 100 rpm), ip hypertonic saline injection (0.4 ml of 1.5M saline), restraint (30 min), tail suspension (10 min) and forced swimming (10 min in RT water). […]
There was no evidence of tau pathology (tangle formation), nor was it expected to develop in animals at this early stage of disease progression. […] While it remains to be determined whether this effect will maintain in older animals, and whether drug and/or stress exposure will affect tau pathology, the results provide an additional endorsement for considering CRFR1 as a therapeutic target in AD.

The test system of data set [5] is interstitial fluid levels of Aβ. Particulars: central CRF administration; APP transgenic mice; Kang et al., 2007; cited from earlier work.
The subject of data set [6] is hippocampal tau-P (PHF-1 immunoreactivity). The data set can be described thus: Intracerebroventricular CRF injection, PHF-1 immunohistochemistry of hippocampus. It counts as in vivo, mouse. Particulars: 0.5 μg CRF icv, 40 min after administration. An excerpt: CRF-R1−/− (U.S. Pat. No. 6,147,275) and CRF-R2−/− (U.S. Pat. No. 6,353,152) mice, along with age-matched wt controls (n=3/group), were anesthetized with isoflurane, and implanted stereotaxically with 26-ga guide cannulae (Plastics One, Wallingford, Conn.) aimed to terminate above the lateral ventricle. Cannulae were affixed to the skull with dental acrylic adhering to jeweler's screws partially driven into the skull, and sealed externally with stylets. After 7 d recovery, stylets were replaced with 33-ga injection cannulae, and 2 hr later the animals were remotely injected with 0.5 μg synthetic mouse/human CRF in […] saline, or vehicle alone, over ˜1 min. To approximate the time frame used in acute stress experiments, animals were killed 40 min after icy injection and perfused for immunohistochemistry, as above. CRF was generously provided by Dr. J. Rivier (Salk Institute).
Mice were perfused with 4% paraformaldehyde, as previously described (Bittencourt and Sawchenko, 2000). 30 μm-thick frozen sections were cut on a sliding microtome and stored at −20° C. in cryoprotectant solution (20% glycerol and 30% ethylene glycol in 0.1 M phosphate buffer) until use. Free-floating sections containing the hippocampus were used to detect tau-P with PHF-1 (1:500) in mouse tissues using Mouse-on-Mouse Immunodetection Kit reagents (Vector, Burlingame, Calif.) to avoid detection of endogenous mouse immunoglobulin. Endogenous peroxidase was quenched with 0.3% hydrogen peroxide, followed by 1% sodium borohydride to reduce free aldehydes. Reaction product was developed using a nickel-enhanced glucose oxidase method (Shu et al., 1988).
To determine whether CRF is capable of independently eliciting hippocampal tau-P, wt and CRF-R-deficient mice were implanted with lateral ventricular cannulae for icy injection. Resultant PHF-1 immunoreactivity was examined 40 min after administration of CRF (0.5 μg in 5 μl) or vehicle (FIG. 4B). […] In contrast to stress effects, however, no labeling of pyramidal neurons or their processes was observed after icy CRF injections.

Regarding `CCC(CC)c1cc(C)nn2c(-c3sc(N4CCOCC4)nc3Cl)c(C)nc12` [MTIP, 3-(4-Chloro-2-Morpholin-4-yl-Thiazol-5-yl)-8-(1-Ethylpropyl)-2,6-Dimethyl-Imidazo[1,2b]Pyridazine], in data set [1], the “ability to cross the BBB” value is listed as “has the ability to cross the BBB”. Further, the solubility result in data set [2] was “favorable solubility”.

Regarding `CCCCN(CC)c1nc(C)nc2c1c(C)c(C)n2-c1c(C)cc(C)cc1C` [antalarmin], in data set [3] (antalarmin 20 mg/kg ip 20 min before 30 min acute restraint, hippocampal extracts 20 min post-stress), the “stress-induced increments in tau phosphorylation at the AT8 and PHF-1 sites” value is “prevented stress-induced increments in phosphorylation at both sites; also recorded: blocked the stress-induced increment”. For the same molecule, in data set [3] (antalarmin 20 mg/kg ip, unstressed mice, hippocampal extracts, relative to untreated controls), the “basal levels of tau-P at the AT8 or PHF-1 sites” value was “Neither antalarmin nor the vehicle used for its administration significantly altered basal levels of tau-P; also recorded: did not affect basal levels of phosphorylation”. Moreover, the “density of plaques (change by antagonist treatment)” value in data set [4] (both stressed and unstressed PS/APP mice, cerebral cortex) is reported as “significantly reduced”. Also, the figures for the “density of plaques in cortex and hippocampus” value in data set [4] (stressed (CVS) PS/APP mice) and in data set [4] (unstressed PS/APP mice) were 2.49 /mm^2 and 1.15 /mm^2, respectively.

Turning to “CRF: synthetic mouse/human corticotropin-releasing factor peptide, injected icv (SEEPPISLDLTFHLLREVLEMARAEQLAQQAHSNRKLMEII)”, in data set [5], the “interstitial fluid levels of Aβ” value is recorded as “can increase interstitial fluid levels of Aβ”. The “hippocampal tau-P (PHF-1 labeling) after icv CRF” value in data set [6] (CRF-R1-/- mice) was “comparable to the low level seen in saline-injected controls”. For the same molecule, the “hippocampal tau-P (PHF-1 immunoreactivity) after icv CRF” value in data set [6] (CRF-R2-/- mice) and in data set [6] (wt mice) was “robust increases in hippocampal tau-P” throughout.
